Source: patent publication US6579881B2 (Eisai Co., Ltd., priority 1997, dated 2003)
Counter-ions that a name gives are not always drawn. Like-named read-outs stand apart in the source and are kept apart here.

Assays:
[1] = target: T1, serotonin 1A receptor (Rattus norvegicus, UniProt P19327); experiment: Binding test on [3H] 8-hydroxy-dipropylaminotetralin (serotonin 1A receptor); conditions: [3H] 8-OH-DPAT 0.5 nM, receptor fraction of rat hippocampus; read-out: 5HT1a
T1 construct: To the receptor fraction of the hippocampus were added a test compound and 0.5 nM of [^3H]; 8-hydroxy-dipropylaminotetralin; from tissue; host or cells: SD rat hippocampus, membrane (receptor) fraction
T1 sequence (P19327 1-422): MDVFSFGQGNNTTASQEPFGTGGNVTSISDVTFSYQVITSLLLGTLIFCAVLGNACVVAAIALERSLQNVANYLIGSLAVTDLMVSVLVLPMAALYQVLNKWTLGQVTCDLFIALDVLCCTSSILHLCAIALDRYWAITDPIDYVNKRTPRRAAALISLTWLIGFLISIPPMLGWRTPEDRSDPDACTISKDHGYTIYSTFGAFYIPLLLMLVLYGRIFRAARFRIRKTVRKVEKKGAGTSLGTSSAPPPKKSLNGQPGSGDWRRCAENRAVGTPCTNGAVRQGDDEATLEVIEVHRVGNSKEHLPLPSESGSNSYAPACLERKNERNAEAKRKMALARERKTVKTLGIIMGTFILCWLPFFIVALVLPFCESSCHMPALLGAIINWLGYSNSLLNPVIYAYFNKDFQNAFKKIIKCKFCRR

[2] = target: α1 adrenalin receptor; experiment: Binding test on [3H] prazosin (α1 adrenalin receptor); set-up: species or system rat; conditions: [3H] prazosin about 0.2 nM, receptor fraction of rat cerebral cortex
[3] = target: serotonin 2 receptor (Rattus norvegicus, UniProt P14842); experiment: Binding test on [3H] ketanserin (serotonin 2 receptor)
[4] = [3H] ketanserin 0.3 nM, receptor fraction of rat cerebral cortex, read-out: 5HT2

Chain of serotonin 2 receptor (P14842 whole entry): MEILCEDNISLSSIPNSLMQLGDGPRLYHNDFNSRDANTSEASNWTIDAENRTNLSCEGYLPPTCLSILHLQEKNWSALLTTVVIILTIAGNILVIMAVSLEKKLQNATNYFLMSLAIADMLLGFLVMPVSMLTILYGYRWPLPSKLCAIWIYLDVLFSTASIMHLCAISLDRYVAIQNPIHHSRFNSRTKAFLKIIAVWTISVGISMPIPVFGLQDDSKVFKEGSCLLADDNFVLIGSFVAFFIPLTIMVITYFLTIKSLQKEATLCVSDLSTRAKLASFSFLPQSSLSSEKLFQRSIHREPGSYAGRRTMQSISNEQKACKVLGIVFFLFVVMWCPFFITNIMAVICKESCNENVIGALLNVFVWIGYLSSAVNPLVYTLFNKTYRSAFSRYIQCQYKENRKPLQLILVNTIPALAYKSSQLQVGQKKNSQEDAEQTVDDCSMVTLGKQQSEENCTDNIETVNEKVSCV

Compound	Ki [1] [nM]	Ki [2] [nM]	Ki [3, 4] [nM]	Ki [3] [nM]
COc1ccc2c(c1)N(C1CCN(CCc3ccc(F)cc3)C1)CC2 (stereo not drawn) [Example 292, 1-[1-(4-fluorophenethyl)pyrrolidin-3-yl]-6-methoxyindoline]	92	178	58.8	–
CC(=O)N1CCC(CNC(=O)Cc2ccc3ccn(C4CCN(CCc5ccc(F)cc5)CC4)c3c2)CC1 [Example 343, Oxalate]	1.54	38.1	–	1.64
O=C(Cc1ccc2ccn(C3CCN(CCc4ccc(F)cc4)CC3)c2c1)N1CCCC1 [Example 298, 1-[1-(4-fluorophenethyl)piperidin-4-yl]-6-(tetramethylenecarbamoylmethyl)indole Oxalate]	1.86	27.9	21.3	–
c1ccc2c(c1)CCN2C1CCN(CC2COc3ccccc3O2)CC1 (stereo not drawn) [Example 77, 1-{1-[(1,4-benzodioxan-2-yl)methyl]piperidin-4-yl}indoline]	44.5	249	13.7	–
O=C1NCCN1Cc1ccc2ccn(C3CCN(CCc4ccc(F)cc4)CC3)c2c1 [Example 355, 1-[1-(4-fluorophenethyl)piperidin-4-yl]-6-(2-imidazolidonyl)methylindole]	0.35	39.5	6.87	–
CNCc1ccc2ccn(C3CCN(CCc4ccc(F)cc4)CC3)c2c1 [Example 361, 1-[1-(4-fluorophenethyl)piperidin-4-yl]-6-N-methylaminomethylindole]	0.27	77.4	> 20	–
O=C(CCCO)NCc1ccc2ccn(C3CCN(CCc4ccc(F)cc4)CC3)c2c1 [Example 329, 1-[1-(4-fluorophenethyl)piperidin-4-yl]-6-(4-hydroxybutyroylamidomethyl)indole Oxalate]	2.06	149	2.41	–
O=C(CF)NCc1ccc2ccn(C3CCN(CCc4ccccc4F)CC3)c2c1 [Example 381, 1-[1-(2-fluorophenethyl)piperidin-4-yl]-6-fluoroacetamidomethylindole]	1.37	101	2.02	–
CN(C)CCC(=O)NCc1ccc2ccn(C3CCN(CCc4ccc(F)cc4)CC3)c2c1 [Example 378, 1-[1-(4-fluorophenethyl)piperidin-4-yl]-6-(3-N,N-dimethylaminopropionyl)aminomethylindole]	14.2	43.7	1.54	–
CCCC(=O)NCc1ccc2ccn(C3CCN(CCc4ccc(F)cc4)CC3)c2c1 [Example 362, 1-[1-(4-fluorophenethyl)piperidin-4-yl]-6-(n-butyryl)aminomethylindole]	0.46	144	3.54	–
CC(=O)NCc1ccc2c(CO)cn(C3CCN(CCc4ccc(F)cc4)CC3)c2c1 [Example 372, 1-[1-(4-fluorophenethyl)piperidin-4-yl]-3-hydroxymethyl-6-acetamidomethylindole]	> 20	206	> 20	–
COc1ccc(C(O)c2ccc3ccn(C4CCN(CCc5ccc(F)cc5)CC4)c3c2)cn1 (stereo not drawn) [Example 318, 1-[1-(4-fluorophenethyl)piperidin-4-yl]-6-[(2-methoxypyridin-5-yl)hydroxymethyl]indole Oxalate]	1.49	46.6	8.3	–
Nc1nc2cc3c(cc2s1)CCN3C1CCN(CCc2ccc(F)cc2)CC1 [Example 235]	0.2	77.8	14.6	–
CC(=O)NCc1ccc2ccn(C3CCN(CCc4cccnc4)CC3)c2c1 [Example 386, 1-{1-[2-(3-Pyridyl)ethyl]piperidin-4-yl}-6-acetamidomethylindole]	5.38	26.2	> 20	–
N#CCNC(=O)Cc1ccc2ccn(C3CCN(CCc4ccc(F)cc4)CC3)c2c1 [Example 308, 1-[1-(4-fluorophenethyl)piperidin-4-yl]-6-cyanomethylcarbamoylmethylindole Oxalate]	0.73	59.4	3.84	–
Cc1nc2sccn2c(=O)c1CCN1CCC(N2CCc3ccccc32)CC1 [Co. No. 5 given in WO96/23784, 1-{1-[2-(5-oxo-7-methyl-5H-pyrimidino[2,1-b][1,3]thiazol-6-yl)ethyl]piperidin-4-yl}indoline, reference compound]	–	16.8	–	–
Fc1ccc(OCCCN2CCC(N3CCc4ccccc43)CC2)cc1 [Example 69, 1-{1-[3-(4-fluorophenoxy)propyl]piperidin-4-yl}indoline]	9.7	–	29.9	–
OCc1ccc(OCCCN2CCC(N3CCc4ccccc43)CC2)cc1 [Example 70, 1-{1-[3-(4-hydroxymethylphenoxy)propyl]piperidin-4-yl}indoline]	41.9	–	27.6	–
Fc1ccc(CCCCN2CCC(N3CCc4ccccc43)CC2)cc1 [Example 15, 1-[1-(4-fluorophenylbutyl)piperidin-4-yl]indoline]	28.6	–	28.6	–
O=C(Cc1ccc2c(c1)N(C1CCN(CCc3ccc(F)cc3)CC1)CC2)N1CCCC1 [Example 155, 1-[1-(4-fluorophenethyl)piperidin-4-yl]-6-(tetramethylenecarbamoylmethyl)indoline]	14.8	–	1.33	–

The next lines start with results.

Ki [1] [nM]	Ki [2] [nM]	Ki [3, 4] [nM]	Compound	Ki [3] [nM]
0.73	41.8	14	O=C1CCCN1Cc1ccc2ccn(C3CCN(CCc4ccc(F)cc4)CC3)c2c1 [Example 358, 1-[1-(4-fluorophenethyl)piperidin-4-yl]-6-(2-pyrrolidon-1-yl)methylindole]	–
26.6	690	> 20	CC(=O)NCc1ccc2ccn(C3CCN(CCCc4ccc(F)cc4)CC3)c2c1 [Example 360, 1-{1-[3-(4-fluorophenyl)propyl]-piperidin-4-yl}-6-acetamidomethylindole]	–
29.2	72.2	10.6	1-[1-(4-fluorophenethyl)piperidin-4-yl]-7-hydroxy-(4a,7a)-cyclohexanoindoline and 1-[1-(4-fluorophenethyl)piperidin-4-yl]-4-hydroxy-(3b,6a)-cyclohexanoindoline [Example 236]	–
2.9	51.1	19.5	OCCOc1ccc(CCN2CCC(N3CCc4ccccc43)CC2)cc1 [Example 26, 1-{1-[4-(2-hydroxyethoxy)phenethyl]piperidin-4-yl}indoline]	–
4.7	81.6	42.9	CC1CN(C2CCN(CCc3ccc(F)cc3)CC2)c2ccccc21 (stereo not drawn) [Example 216, 1-[1-(4-fluorophenethyl)piperidin-4-yl]-3-methylindoline]	–
0.72	51.3	1.1	O=C(Cc1ccc2ccn(C3CCN(CCc4ccc(F)cc4)CC3)c2c1)NCc1ccncc1 [Example 314, 1-[1-(4-fluorophenethyl)piperidin-4-yl]-6-(pyridin-4-yl)methylcarbamoylmethylindole]	–
65	> 200	5.01	COc1cccc(Cc2ccc3c(c2)N(C2CCN(CCc4ccc(F)cc4)CC2)CC3)n1 [Example 187, 1-[1-(4-fluorophenethyl)piperidin-4-yl]-6-[1-(2-methoxypyridin-6-yl)methyl]indoline]	–
8.27	53.3	0.56	O=C(Cc1ccc2ccn(C3CCN(CCc4ccc(F)cc4)CC3)c2c1)NCCN1CCCC1 [Example 312, 1-[1-(4-fluorophenethyl)piperidin-4-yl]-6-[2-(pyrrolidin-1-yl)ethyl]carbamoylmethylindole Oxalate]	–
0.99	34.3	11.6	O=Cc1ccc2ccn(C3CCN(CCc4ccccc4F)CC3)c2c1 [Example 390, 1-[1-(2-fluorophenethyl)piperidin-4-yl]-6-formylindole]	–
13.7	–	2.21	OC(c1cncnc1)c1ccc2c(c1)N(C1CCN(CCc3ccc(F)cc3)CC1)CC2 (stereo not drawn) [Example 198, 1-[1-(4-fluorophenethyl)piperidin-4-yl]-6-[1-hydroxy-1-(pyrimidin-5-yl)methyl]indoline]	–
5.58	–	0.76	O=C(NCc1ccc2c(c1)N(C1CCN(CCc3ccc(F)cc3)CC1)CC2)C1CC1 [Example 159, 1-[1-(4-fluorophenethyl)piperidin-4-yl]-6-cyclopropanecarboxamindomethylindoline]	–
> 200	–	60	CCN1CCC(N2CC(CCc3cccc(OC)c3)c3ccccc32)CC1 (stereo not drawn) [Example 246, 1-(1-ethylpiperidin-4-yl)-3-(3-methoxyphenethyl)indoline]	–
31.2	–	52.2	c1ccc(CCN2CCC(N3CCc4ccccc43)CC2)nc1 [Example 50, 1-{1-[2-(2-pyridyl)ethyl]piperidin-4-yl}indoline]	–
4	–	43.7	CN(C)CCOc1ccc(CCN2CCC(N3CCc4ccccc43)CC2)cc1 [Example 44, 1-{1-[4-(2-dimethylaminoethoxy)phenethyl]piperidin-4-yl}indoline]	–
2.5	–	5.6	COc1ccc(CCN2CCC(N3CCc4ccccc43)CC2)cn1 [Example 52, 1-{1-[2-(2-methoxy-5-pyridyl)ethyl]piperidin-4-yl}indoline]	–
